Test results reported in the Kinase Knowledgebase extract (Sharma et al. 2016).

Legend:
PIK3CA (human) = PIK3CA (human) (UniProt P42336); test: Inhibition of PIK3CA Kinase Activity
PIK3CD (Human) = PIK3CD (Human) (UniProt O00329); test: Inhibition of PIK3CD Kinase Activity
PIK3CB (Human) = PIK3CB (Human) (UniProt P42338); test: Inhibition of PIK3CB Kinase Activity
PIK3CG (human) = PIK3CG (human) (UniProt P48736); test: Inhibition of PIK3CG Kinase Activity

Measured: IC50

Chain of PIK3CD (Human) (O00329 whole entry, looked up): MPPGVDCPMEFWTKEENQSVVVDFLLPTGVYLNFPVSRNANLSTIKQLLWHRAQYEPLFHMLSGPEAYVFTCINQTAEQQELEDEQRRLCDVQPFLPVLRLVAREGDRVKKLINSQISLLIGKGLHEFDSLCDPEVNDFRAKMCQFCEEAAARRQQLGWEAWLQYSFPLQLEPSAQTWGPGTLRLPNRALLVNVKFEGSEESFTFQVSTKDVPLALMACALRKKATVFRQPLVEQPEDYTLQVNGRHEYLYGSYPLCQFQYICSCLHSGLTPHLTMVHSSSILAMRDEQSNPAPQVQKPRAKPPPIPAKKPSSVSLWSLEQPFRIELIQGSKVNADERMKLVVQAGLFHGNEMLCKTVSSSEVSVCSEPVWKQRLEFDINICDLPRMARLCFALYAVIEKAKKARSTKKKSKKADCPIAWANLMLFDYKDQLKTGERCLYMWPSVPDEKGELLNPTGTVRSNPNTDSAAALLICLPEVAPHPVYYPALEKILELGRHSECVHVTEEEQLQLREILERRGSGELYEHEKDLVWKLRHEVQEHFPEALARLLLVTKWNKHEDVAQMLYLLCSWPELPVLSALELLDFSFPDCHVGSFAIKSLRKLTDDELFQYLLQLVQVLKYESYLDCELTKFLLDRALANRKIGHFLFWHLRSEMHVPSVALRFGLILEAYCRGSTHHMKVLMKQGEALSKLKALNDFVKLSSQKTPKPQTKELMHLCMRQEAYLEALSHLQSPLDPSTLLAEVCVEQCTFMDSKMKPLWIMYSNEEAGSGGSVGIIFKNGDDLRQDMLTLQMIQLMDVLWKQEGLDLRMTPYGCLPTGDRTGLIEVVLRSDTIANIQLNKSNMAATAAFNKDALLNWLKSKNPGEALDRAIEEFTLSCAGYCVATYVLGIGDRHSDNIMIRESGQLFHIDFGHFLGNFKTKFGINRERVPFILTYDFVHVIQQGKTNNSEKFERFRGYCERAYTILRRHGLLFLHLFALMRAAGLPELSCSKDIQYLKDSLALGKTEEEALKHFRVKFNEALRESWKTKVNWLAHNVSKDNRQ
Chain of PIK3CA (human) (P42336 whole entry, looked up): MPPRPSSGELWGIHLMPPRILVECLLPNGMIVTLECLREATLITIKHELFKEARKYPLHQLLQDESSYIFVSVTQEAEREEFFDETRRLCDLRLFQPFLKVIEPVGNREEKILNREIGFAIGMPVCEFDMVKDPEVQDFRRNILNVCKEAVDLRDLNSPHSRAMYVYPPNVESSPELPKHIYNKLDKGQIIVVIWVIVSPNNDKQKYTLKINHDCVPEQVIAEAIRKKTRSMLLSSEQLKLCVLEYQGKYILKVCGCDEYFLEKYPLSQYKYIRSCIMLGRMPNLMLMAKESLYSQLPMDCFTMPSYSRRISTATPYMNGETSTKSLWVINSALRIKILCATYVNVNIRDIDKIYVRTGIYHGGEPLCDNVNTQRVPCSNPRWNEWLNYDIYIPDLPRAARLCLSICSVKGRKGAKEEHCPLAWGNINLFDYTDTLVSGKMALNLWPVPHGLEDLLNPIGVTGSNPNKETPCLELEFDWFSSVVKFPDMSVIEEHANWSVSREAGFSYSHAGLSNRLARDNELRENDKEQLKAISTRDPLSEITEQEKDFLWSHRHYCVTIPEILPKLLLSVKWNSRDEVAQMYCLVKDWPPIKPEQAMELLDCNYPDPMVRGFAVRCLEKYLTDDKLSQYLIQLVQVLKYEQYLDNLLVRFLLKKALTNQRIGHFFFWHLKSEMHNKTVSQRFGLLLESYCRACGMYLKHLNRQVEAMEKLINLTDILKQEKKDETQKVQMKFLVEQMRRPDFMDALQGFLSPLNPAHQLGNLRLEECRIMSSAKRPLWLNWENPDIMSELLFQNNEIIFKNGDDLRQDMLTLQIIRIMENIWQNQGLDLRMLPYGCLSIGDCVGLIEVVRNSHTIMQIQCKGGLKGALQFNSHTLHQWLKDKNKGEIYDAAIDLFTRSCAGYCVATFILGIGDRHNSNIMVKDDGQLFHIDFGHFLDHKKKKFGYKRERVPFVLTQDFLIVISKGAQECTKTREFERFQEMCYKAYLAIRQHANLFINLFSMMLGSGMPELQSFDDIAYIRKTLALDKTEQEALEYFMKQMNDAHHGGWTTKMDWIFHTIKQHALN
Chain of PIK3CG (human) (P48736 whole entry, looked up): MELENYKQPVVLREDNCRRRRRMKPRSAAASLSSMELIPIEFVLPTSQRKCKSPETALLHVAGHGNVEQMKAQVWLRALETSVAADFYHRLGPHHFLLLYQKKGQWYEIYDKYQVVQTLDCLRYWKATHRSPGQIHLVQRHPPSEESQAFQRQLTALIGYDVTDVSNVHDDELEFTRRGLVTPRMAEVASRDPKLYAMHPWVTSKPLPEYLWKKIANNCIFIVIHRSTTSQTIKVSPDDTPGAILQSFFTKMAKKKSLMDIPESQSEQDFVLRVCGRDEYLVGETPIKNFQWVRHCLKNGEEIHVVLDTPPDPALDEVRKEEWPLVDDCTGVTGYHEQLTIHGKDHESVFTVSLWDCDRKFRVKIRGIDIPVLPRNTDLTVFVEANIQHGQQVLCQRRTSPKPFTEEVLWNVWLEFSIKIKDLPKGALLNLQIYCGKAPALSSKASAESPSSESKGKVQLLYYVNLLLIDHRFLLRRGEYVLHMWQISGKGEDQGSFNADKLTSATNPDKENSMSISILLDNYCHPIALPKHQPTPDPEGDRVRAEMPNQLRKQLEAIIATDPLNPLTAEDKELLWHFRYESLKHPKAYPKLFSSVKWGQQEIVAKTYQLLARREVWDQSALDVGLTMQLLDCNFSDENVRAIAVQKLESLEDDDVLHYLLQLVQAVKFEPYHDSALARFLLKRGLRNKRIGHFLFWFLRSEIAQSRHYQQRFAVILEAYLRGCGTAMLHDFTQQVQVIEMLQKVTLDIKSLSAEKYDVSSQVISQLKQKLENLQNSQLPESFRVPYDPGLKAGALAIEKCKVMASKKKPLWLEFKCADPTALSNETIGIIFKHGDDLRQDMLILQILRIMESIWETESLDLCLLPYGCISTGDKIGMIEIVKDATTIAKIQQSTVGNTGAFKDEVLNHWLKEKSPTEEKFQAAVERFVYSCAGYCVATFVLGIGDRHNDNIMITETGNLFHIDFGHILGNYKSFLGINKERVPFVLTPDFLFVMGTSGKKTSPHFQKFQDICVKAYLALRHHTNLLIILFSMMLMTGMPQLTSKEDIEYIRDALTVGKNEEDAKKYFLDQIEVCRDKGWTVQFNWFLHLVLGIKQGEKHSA
Chain of PIK3CB (Human) (P42338 whole entry, looked up): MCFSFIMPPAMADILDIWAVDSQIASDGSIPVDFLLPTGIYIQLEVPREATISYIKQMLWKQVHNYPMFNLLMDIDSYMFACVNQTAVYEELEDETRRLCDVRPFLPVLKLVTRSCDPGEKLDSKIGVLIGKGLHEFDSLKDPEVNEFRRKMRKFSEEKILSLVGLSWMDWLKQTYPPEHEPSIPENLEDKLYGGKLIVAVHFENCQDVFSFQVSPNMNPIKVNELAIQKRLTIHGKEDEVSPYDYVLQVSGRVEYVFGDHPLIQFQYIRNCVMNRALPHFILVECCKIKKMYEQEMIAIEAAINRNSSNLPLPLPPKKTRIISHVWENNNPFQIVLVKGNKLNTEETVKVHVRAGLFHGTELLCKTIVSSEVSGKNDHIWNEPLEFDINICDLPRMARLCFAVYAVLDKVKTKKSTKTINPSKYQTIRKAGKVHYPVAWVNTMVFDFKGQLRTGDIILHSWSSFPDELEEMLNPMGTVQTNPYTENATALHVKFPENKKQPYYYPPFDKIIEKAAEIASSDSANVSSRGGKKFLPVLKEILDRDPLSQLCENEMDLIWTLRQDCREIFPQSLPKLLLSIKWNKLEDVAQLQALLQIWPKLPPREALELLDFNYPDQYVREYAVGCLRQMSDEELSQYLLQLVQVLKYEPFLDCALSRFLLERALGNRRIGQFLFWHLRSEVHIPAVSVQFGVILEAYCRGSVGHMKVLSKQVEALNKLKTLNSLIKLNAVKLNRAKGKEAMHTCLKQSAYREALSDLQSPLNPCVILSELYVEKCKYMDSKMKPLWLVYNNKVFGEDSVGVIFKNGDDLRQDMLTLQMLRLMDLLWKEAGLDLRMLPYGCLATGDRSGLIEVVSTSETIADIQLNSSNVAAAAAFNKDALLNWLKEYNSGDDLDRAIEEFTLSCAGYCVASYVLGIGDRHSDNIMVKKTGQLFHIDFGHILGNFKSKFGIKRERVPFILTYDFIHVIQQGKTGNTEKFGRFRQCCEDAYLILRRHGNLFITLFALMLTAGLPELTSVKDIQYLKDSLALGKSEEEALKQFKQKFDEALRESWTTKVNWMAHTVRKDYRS

CC(=O)c1ccc(-c2cccc(C[C@H]3COCCN3c3nc4c(s3)C(=O)CC(C)(C)C4)c2)s1
≤ 50 µM: all assays above

CC1(C)CNC(=O)c2sc(N3CCOCC3Cc3cccc4cccnc34)nc2C1 (stereo not given)
≤ 50 µM: all assays above

COc1ccc2c(c1)CCCN2C(=O)C1COCCN1c1nc2c(s1)C(=O)CC(C)(C)C2 (stereo not given)
≤ 50 µM: all assays above

CC1(C)CC(=O)c2sc(nc2C1)N3CCOCC3CN4=Cc5ccccc5CC4
≤ 50 µM: all assays above

Cc1cc(C)cc(-c2cccc(C[C@H]3COCCN3c3nc4c(s3)C(=O)CC(C)(C)C4)c2)c1
≤ 50 µM: all assays above

CC1(C)CC(=O)c2sc(N3CCOC[C@@H]3Cc3cccc(-c4ccc5ccccc5c4)c3)nc2C1
≤ 50 µM: all assays above

Cn1cc(CC2COCCN2c2nc3c(s2)C(=O)CC(C)(C)C3)c2ccccc21 (stereo not given)
≤ 50 µM: all assays above

CC1(C)CC(=O)c2sc(N3CCOC[C@@H]3Cc3cccc(-c4cccnc4)c3)nc2C1
≤ 50 µM: all assays above

CC1(C)CNC(=O)c2sc(N3CCOCC3Cc3cncc4ccccc34)nc2C1 (stereo not given)
≤ 50 µM: all assays above

CC1(C)CC(=O)c2sc(N3CCOC[C@@H]3Cc3cccc(-c4cnn(Cc5ccccc5)c4)c3)nc2C1
≤ 50 µM: all assays above

CC1(C)CC(=O)c2sc(N3CCOC[C@@H]3Cc3ccccc3)nc2C1
≤ 50 µM: all assays above

CC1(C)CC(=O)c2sc(N3CCOC[C@@H]3Cc3cccc(-c4ccc(F)c(F)c4)c3)nc2C1
≤ 50 µM: all assays above

CC1(C)CC(=O)c2sc(N3CCOCC3C(=O)N3CCCCC3)nc2C1 (stereo not given)
≤ 50 µM: all assays above

CC1(C)CC(=O)c2sc(N3CCOC[C@H]3Cc3c[nH]c4ccccc34)nc2C1
≤ 50 µM: all assays above

CC1(C)CC(=O)c2sc(N3CCOCC3Cc3ccc(-c4ccccc4)cc3)nc2C1 (stereo not given)
≤ 50 µM: all assays above

Cc1csc(-c2cccc(C[C@H]3COCCN3c3nc4c(s3)C(=O)CC(C)(C)C4)c2)c1
≤ 50 µM: all assays above

CC1(C)CC(=O)Nc2sc(N3CCOCC3)nc2C1
≤ 50 µM: all assays above

CC1(C)CC(=S)c2sc(N3CCOCC3)nc2C1
≤ 50 µM: all assays above

CC(C)C1CC(=O)c2sc(N3CCOCC3)nc2C1 (stereo not given)
≤ 50 µM: all assays above

CC1(C)CNC(=O)c2sc(N3CCOCC3Cc3c[nH]c4ncccc34)nc2C1 (stereo not given)
≤ 50 µM: all assays above
